Legend:
[1] = Solubility/crystallization screen of Compound 6 salts (20 mg salt, solvent, heating, then standing)
Procedure: The resulting solids were analyzed by DSC and portions of each salt were tested for solubility and crystallization from the following solvents:
20 mg of salt was charged to a 1-dram screw-top vial. Solvent (enough to cover the solids) was added, the vial was capped and heated (heat gun) to aid dissolution. If no, or partial dissolution was observed, the vial was allowed to cool, additional solvent was added and the process repeated. The solubility was characterized as follows: Soluble (sol): the solids dissolved upon heating, Sparingly soluble (sp): the solids dissolved upon heating after two or more additions of solvent or Insoluble (I): complete dissolution could not be achieved. […] The vials containing solids were filtered and analyzed by DSC.

[2] = Solubility in ethanol observed during salt formation; assay type: physicochemical
Procedure: To a 2-L Morton flask equipped with a heating mantle, thermocouple, condenser and mechanical stirrer was charged (4-fluorophenyl)(4-((5-methyl-1H-pyrazol-3-yl)amino)quinazolin-2-yl)methanol free base (40.20 g, 115 mmol, 1.0 equiv.). Ethanol (1.6 L) was added and the suspension was stirred and heated to reflux (78° C., internal temperature) until dissolution of the suspension was observed. Ethanesulfonic acid (9.4 mL, 115 mmol, 1.0 equiv.) was charged to the resulting yellow solution. Reflux was maintained for 1 hour, then heating was discontinued and the reaction was allowed to cool to room temperature and stirred overnight. Stirring was stopped and the solids were allowed to settle. The reaction was filtered and the initial isolated product (R)-(4-fluorophenyl)(4-((5-methyl-1H-pyrazol-3-yl)amino)quinazolin-2-yl)methanol dried in a vacuum oven (45° C., ˜20 torr) for 3 days to produce 29.69 g, 65 mmol, 56% yield. The supernatant was concentrated and a second crop of the product was obtained and dried as the first to produce 10.52 g, 23 mmol, 20% yield.
The combined yield for the two crops was 76%. […] Higher yields of salt can be obtained by reducing the amount of ethanol. […]

[3] = Stability of esylate salt in water and aqueous ethanol (dissociation to free base); assay type: physicochemical; details: in water and aqueous ethanol solutions
Source text: Spontaneous precipitation from the aqueous solution afforded Compound 6 as free base; a new crystalline XRPD pattern was observed (See FIG. 38). The free base of Compound 6 was partially precipitated upon water addition to the ethanol solution and was further recovered by evaporation of the ethanol: water solution. These observations indicate the esylate salt is unstable in water and aqueous ethanol due to dissociation.
A new crystalline XRPD pattern designated as Form A of the free base of Compound 6 was observed from precipitation in ethanol with water (antisolvent) when amorphous ethanesulfonate salt of Compound 6 was used. (FIG. 38, top pattern). Summary of the data obtained for Form A of the free base is shown below in Table 16. […] The Compound 6 free base was recovered by further evaporation of the aqueous ethanol solution. […] These observations indicate the esylate salt is unstable due to dissociation in water and aqueous ethanol solutions.

[4] = standing 1 h after cooling to room temperature
[5] = standing 4 d after cooling to room temperature

Solubility in EtOH ([1]; Heating): sol
Solubility in H2O ([1]; Heating): sol
Solubility in IPA ([1]; Heating): sol
Solubility in MeOH ([1]; Heating): sol
Solubility/crystallization in EtOH [1, 4]: cryst
Solubility/crystallization in H2O [1, 4]: gels
Solubility/crystallization in IPA [1, 4]: cryst
Solubility/crystallization in MeOH [1, 4]: sol
Solubility/crystallization in EtOH [1, 5]: cryst
Solubility/crystallization in IPA [1, 5]: cryst
Solubility/crystallization in MeOH [1, 5]: sol
Solubility in ethanol compared to the free base [2]: higher solubility in ethanol
Stability of the salt (dissociation to free base) [3]: unstable
SMILES: CCS(=O)(=O)O [Ethanesulfonic acid]
